Entries after “also recorded” stand apart in the source; their conditions may differ.
Key:
rats = assay: Toxicology: organs sectioned and examined after dosing; format: in vivo; details: two animals examined, findings per animal
Protocol: In at least two of the animals in each group, the pancreas, right kidney and part of the liver, heart, spleen, and lung were removed and evaluated for toxic effects.
The toxicology of animals receiving some of the compounds of the present invention IP and/or oral was examined. At the time of sacrifice samples of liver, pancreas, heart, lung, spleen and kidney were removed, visually inspected, and immersion fixed in Bouin's solution for a minimum of 48 hours. All organs were then sectioned and examined for evidence of necrosis, inflammation, hemorrhage, and possible tumors. The major veins in each tissue were also examined for distention, especially in the liver and pancreas, and any other abnormalities are compared to known histopathological states. In addition to the above, the heart was examined for evidence of fibrosis in the muscular walls, and to compare the thickness of the ventricular walls. The pancreas was examined mainly for calcium deposits, while the lung was checked for signs of any exudates or hemorrhage, especially in the alveolar spaces. Finally, the kidney was examined mainly for microscopic hemorrhages, tubular necrosis or alterations in the glomeruli in the cortex.
In this example, the effects of RC-MC-30 were compared with those of lonidamine in sexually mature rats. As discussed above, each of the rats (8 total) received a single injection and were sacrificed five days after injection and examined.

Male Long Evans rats = assay: In vivo antispermatogenic testing in Long Evans rats; details: for Mortality (25 mg/kg) / Response 25 mg/kg: 25 mg/kg single i.p. injection; for Response 25 mg/kg / Response 200 mg/kg: animals responding out of animals surviving, five days following injection; for Mortality (200 mg/kg) / Response 200 mg/kg: 200 mg/kg single i.p. injection
[1] = tested on: Salmonella Typhimurium TA 100; assay: Ames test for mutagenicity (plate assay, colony count); details: 48 hours at 37° C.; for Ames test (+)S9 0.1 mg/pl. / Ames test (+)S9 1 mg/pl. / Ames test (+)S9 10 mg/pl.: (+)S9 mix; for Ames test (−)S9 0.1 mg/pl. / Ames test (−)S9 1 mg/pl. / Ames test (−)S9 10 mg/pl.: (−)S9 mix

COC(=O)c1nn(Cc2ccc(Cl)cc2Cl)c2cccnc12 [JWS-1-110]
Toxicology: liver, lung, pancreas, spleen, heart and kidney (histology) (rats; 25 mg/kg): The spleen had distended veins and necrosis in the white pulp; also recorded: The liver had distended portal veins with surrounding small patches of hepatic necrosis; also recorded: The lung contained scattered hemorrhagic areas around the alveoli and terminal bronchioles; also recorded: the spleen had distended veins and diminished amounts of white pulp containing necrotic cells
Toxicology: liver, lung, pancreas, spleen, heart and kidney (histology) (rats; 200 mg/kg): The liver showed distended portal veins with scattered, small patches of necrosis; also recorded: The lung contained multiple hemorrhagic areas throughout the alveoli, and terminal and respiratory bronchioles; also recorded: the spleen demonstrated distended veins, and diminished white pulp with necrotic cells; also recorded: The liver had distended veins, with scattered, small patches of necrosis throughout; also recorded: The pancreas had distended veins, but no other noticeable abnormalities
Mortality (25 mg/kg) (Male Long Evans rats): 0/5
Response 25 mg/kg (Male Long Evans rats): 0/5
Mortality (200 mg/kg) (Male Long Evans rats): 0/5
Response 200 mg/kg (Male Long Evans rats): 0/5
Ames test (+)S9 0.1 mg/pl. [1]: Pass
Ames test (+)S9 1 mg/pl. [1]: Pass
Ames test (+)S9 10 mg/pl. [1]: Pass
Ames test (−)S9 0.1 mg/pl. [1]: Pass
Ames test (−)S9 1 mg/pl. [1]: Pass
Ames test (−)S9 10 mg/pl. [1]: Pass

COc1ccc2c(n1)c(C(=O)O)nn2Cc1ccc(Cl)cc1Cl [JWS-1-144, 1-(2,4-dichlorobenzyl)-5-methoxy-1H-pyrazolo[4,3-b]pyridine-3-carboxylic acid]
Toxicology: liver, lung, pancreas, spleen, heart and kidney (histology) (rats; 25 mg/kg): liver, lung, pancreas, spleen, heart and kidney that appeared within normal limits
Mortality (25 mg/kg) (Male Long Evans rats): 0/5
Response 25 mg/kg (Male Long Evans rats): 0/5
Ames test (+)S9 0.1 mg/pl. [1]: Pass
Ames test (+)S9 1 mg/pl. [1]: Pass
Ames test (+)S9 10 mg/pl. [1]: Pass
Ames test (−)S9 0.1 mg/pl. [1]: Pass
Ames test (−)S9 1 mg/pl. [1]: Pass
Ames test (−)S9 10 mg/pl. [1]: Pass

CCOC(=O)c1nn(Cc2ccc(Cl)cc2Cl)c2ccccc12 [RC-MC-156, 1-[(2,4-dichlorobenzyl)-1H-indazole]-3-carboxylic acid ethyl ester]
Toxicology: liver, lung, pancreas, spleen, heart and kidney (histology) (rats; 25 mg/kg): The lung did have scattered small, hemorrhagic patches, mainly in the alveolar and terminal bronchiole regions; also recorded: The lung showed widespread hemorrhagic regions throughout the alveoli and terminal bronchioles with small hemosiderin deposits around a few smaller bronchioles
Toxicology: liver, lung, pancreas, spleen, heart and kidney (histology) (rats; 200 mg/kg): liver, lung, pancreas, spleen, heart and kidney all appeared within normal limits; also recorded: The lung had small, scattered areas of hemorrhage mainly around the alveoli and small bronchioles; also recorded: The liver had small (4-5 cells in diameter) patches of necrosis scattered throughout the parenchyma
Mortality (25 mg/kg) (Male Long Evans rats): 0/5
Response 25 mg/kg (Male Long Evans rats): 2/5
Mortality (200 mg/kg) (Male Long Evans rats): 0/5
Response 200 mg/kg (Male Long Evans rats): 4/5
Ames test (+)S9 0.1 mg/pl. [1]: Pass
Ames test (+)S9 1 mg/pl. [1]: Pass
Ames test (+)S9 10 mg/pl. [1]: Pass
Ames test (−)S9 0.1 mg/pl. [1]: Pass
Ames test (−)S9 1 mg/pl. [1]: Pass
Ames test (−)S9 10 mg/pl. [1]: Pass

COC(=O)c1nn(Cc2ccc(Cl)cc2Cl)c2cnccc12 [JWS-1-130, 1-(2,4-dichlorobenzyl)-1H-pyrazolo[3,4-c]pyridine-3-carboxylic acid methyl ester]
Toxicology: liver, lung, pancreas, spleen, heart and kidney (histology) (rats; 25 mg/kg): The liver appeared to have distended veins throughout, but no other abnormalities were noted; also recorded: The liver did have distended veins throughout, with small scattered patches of necrosis, usually located around the periportal areas
Toxicology: liver, lung, pancreas, spleen, heart and kidney (histology) (rats; 200 mg/kg): liver, lung, pancreas, spleen, heart and kidney all appeared within normal limits; also recorded: The liver did have distended veins throughout, with small scattered patches of necrosis, usually located around the periportal areas
Mortality (25 mg/kg) (Male Long Evans rats): 0/5
Response 25 mg/kg (Male Long Evans rats): 0/5
Mortality (200 mg/kg) (Male Long Evans rats): 0/5
Response 200 mg/kg (Male Long Evans rats): 0/5
Ames test (+)S9 0.1 mg/pl. [1]: Pass
Ames test (+)S9 1 mg/pl. [1]: Pass
Ames test (+)S9 10 mg/pl. [1]: Pass
Ames test (−)S9 0.1 mg/pl. [1]: Pass
Ames test (−)S9 1 mg/pl. [1]: Pass
Ames test (−)S9 10 mg/pl. [1]: Pass

NNC(=O)c1nn(Cc2ccc(Cl)cc2Cl)c2cc(F)ccc12 [JWS-1-160, 1-(2,4-dichlorobenzyl)-6-fluoro-1H-indazole-3-carboxylic acid hydrazide]
Toxicology: liver, lung, pancreas, spleen, heart and kidney (histology) (rats; 25 mg/kg, listed as JSW-1-160): The kidney does have scattered, small patches of tubular necrosis in the inner cortex; also recorded: The liver had several distended veins, but no other abnormalities were noted; also recorded: liver, lung, pancreas, spleen, heart and kidney all appeared within normal limits
Toxicology: liver, lung, pancreas, spleen, heart and kidney (histology) (rats; 200 mg/kg, listed as JSW-1-160): The kidney did have scattered, small patches of tubular necrosis in the inner cortex; also recorded: liver, lung, pancreas, spleen, heart and kidney all appeared within normal limits
Mortality (25 mg/kg) (Male Long Evans rats): 0/5
Response 25 mg/kg (Male Long Evans rats): 3/5
Mortality (200 mg/kg) (Male Long Evans rats): 2/5
Response 200 mg/kg (Male Long Evans rats): 3/3
Ames test (+)S9 0.1 mg/pl. [1]: Pass
Ames test (+)S9 1 mg/pl. [1]: Pass
Ames test (+)S9 10 mg/pl. [1]: Pass
Ames test (−)S9 0.1 mg/pl. [1]: Pass
Ames test (−)S9 1 mg/pl. [1]: Pass
Ames test (−)S9 10 mg/pl. [1]: Pass

COC(=O)c1nn(Cc2ccc(Cl)cc2Cl)c2ccc(OC)nc12 [JWS-1-142, 1-(2,4-dichlorobenzyl)-5-methoxy-1H-pyrazolo[4,3-b]pyridine-3-carboxylic acid methyl ester]
Toxicology: liver, lung, pancreas, spleen, heart and kidney (histology) (rats; 25 mg/kg): liver, lung, pancreas, spleen, heart and kidney all appeared within normal limits
Toxicology: liver, lung, pancreas, spleen, heart and kidney (histology) (rats; 200 mg/kg): The liver contained a small, confined cluster of lymphocytes in the parenchyma; also recorded: liver, lung, pancreas, spleen, heart and kidney all appeared within normal limits
Mortality (25 mg/kg) (Male Long Evans rats): 0/5
Response 25 mg/kg (Male Long Evans rats): 0/5
Mortality (200 mg/kg) (Male Long Evans rats): 0/5
Response 200 mg/kg (Male Long Evans rats): 0/5
Ames test (+)S9 0.1 mg/pl. [1]: Pass
Ames test (+)S9 1 mg/pl. [1]: Pass
Ames test (+)S9 10 mg/pl. [1]: Pass
Ames test (−)S9 0.1 mg/pl. [1]: Pass
Ames test (−)S9 1 mg/pl. [1]: Pass
Ames test (−)S9 10 mg/pl. [1]: Pass

COC(=O)c1nn(Cc2ccc(Cl)cc2Cl)c2cc(F)ccc12 [JWS-1-158, 1-(2,4-dichlorobenzyl)-6-fluoro-1H-indazole-3-carboxylic acid methyl ester]
Toxicology: liver, lung, pancreas, spleen, heart and kidney (histology) (rats; 25 mg/kg, listed as JSW-1-158): liver, lung, pancreas, spleen, heart and kidney all appeared within normal limits; also recorded: The lung had thickening of the alveolar and bronchiole walls, and scattered areas of moderate sized hemorrhaging covering several adjacent alveoli
Toxicology: liver, lung, pancreas, spleen, heart and kidney (histology) (rats; 200 mg/kg, listed as JSW-1-158): The pancreas had areas of lymphocytic infiltrates extending from the periphery inwards between the acinar cells; also recorded: liver, lung, pancreas, spleen, heart and kidney all appeared within normal limits
Mortality (25 mg/kg) (Male Long Evans rats): 0/5
Response 25 mg/kg (Male Long Evans rats): 4/5
Mortality (200 mg/kg) (Male Long Evans rats): 0/5
Response 200 mg/kg (Male Long Evans rats): 5/5
Ames test (+)S9 0.1 mg/pl. [1]: Pass
Ames test (+)S9 1 mg/pl. [1]: Pass
Ames test (+)S9 10 mg/pl. [1]: Pass
Ames test (−)S9 0.1 mg/pl. [1]: Pass
Ames test (−)S9 1 mg/pl. [1]: Pass
Ames test (−)S9 10 mg/pl. [1]: Pass

Source: patent publication US8362031B2, “Lonidamine analogues and treatment of polycystic kidney disease” (University of Kansas, priority 2004, dated 2013)
